Consider one compound from paper PMC6148290, “Endogenous metabolites of vitamin E limit inflammation by targeting 5-lipoxygenase” (Nature Communications, 2018).

One series has as its target T1, 12-LO (Homo sapiens, UniProt P18054).
T1 construct: 12-HETE (12-LO product from platelets in PMNL preparations); endogenous in cells; host or cells: platelets contaminating human PMNL preparations
T1 sequence (P18054 1-663): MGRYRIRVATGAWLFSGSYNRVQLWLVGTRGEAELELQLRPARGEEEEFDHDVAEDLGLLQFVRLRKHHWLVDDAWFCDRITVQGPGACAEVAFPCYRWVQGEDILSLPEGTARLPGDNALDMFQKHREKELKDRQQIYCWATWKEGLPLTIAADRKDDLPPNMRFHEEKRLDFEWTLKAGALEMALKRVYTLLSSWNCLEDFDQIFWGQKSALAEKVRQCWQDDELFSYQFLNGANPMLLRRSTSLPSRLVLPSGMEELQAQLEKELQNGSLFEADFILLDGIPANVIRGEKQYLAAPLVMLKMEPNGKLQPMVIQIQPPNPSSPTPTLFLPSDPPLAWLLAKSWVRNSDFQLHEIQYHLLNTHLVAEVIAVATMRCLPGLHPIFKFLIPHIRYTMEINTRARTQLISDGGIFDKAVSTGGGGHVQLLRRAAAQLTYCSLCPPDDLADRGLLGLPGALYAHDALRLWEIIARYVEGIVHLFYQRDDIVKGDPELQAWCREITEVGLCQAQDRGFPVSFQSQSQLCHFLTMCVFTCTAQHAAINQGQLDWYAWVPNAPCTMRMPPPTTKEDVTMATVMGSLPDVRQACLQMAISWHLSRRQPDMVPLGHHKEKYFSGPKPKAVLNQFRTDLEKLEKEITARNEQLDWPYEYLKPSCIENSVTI
Kind of series: 12-LO product formation in A23187/AA-activated PMNL. In kind it is cell-based. To be noted: at 3 µM; mean ± s.e.m., n = 3; n.i. no inhibition. As for the experimental part:
(§1) Cells were washed and medium was exchanged. Freshly isolated PMNL (1 × 10^7) and stably transfected HEK-293 (1 × 10^6) cells were suspended in PBS pH 7.4 containing 1 mg/ml glucose and 1 mM CaCl2. […] A23187- and A23187/AA-treated PMNL and A23187/AA-treated HEK-293 (5-LO_wt), HEK-293 (5-LO_3W) and HEK-293 (5-LO_Arg101Asp) cells produced 135 ± 21, 636 ± 112, 300 ± 59, 133 ± 29, 55 ± 9 ng 5-LO products, respectively. PMNL synthesized 29 ± 6 ng 12-HETE and 97 ± 23 ng 15-HETE when challenged with A23187/AA. 5-LO products from monocytes were analyzed by UPLC-MS/MS.

A further series relates to 15-LO. In words: 15-LO product formation in A23187/AA-activated PMNL. In kind it is cell-based, human. The note with it: at 3 µM; mean ± s.e.m., n = 3; n.i. no inhibition. As for the experimental part:
as §1

In series [1] the test system is peripheral blood mononuclear cells. In words: Cell viability of PBMC (MTT assay). In kind it is cell-based, human. To be noted: at 1 and 10 µM (one entry for both); 24 h; n.i. no inhibition. As for the experimental part:
The formazan product was solubilized with SDS (10% in 20 mM HCl), and absorbance was measured at 570 nm using a Multiskan Spectrum microplate reader (Thermo Fisher Scientific).
(Tetrazolium assays rely on reduction of a dye to a coloured formazan, in cell work by metabolically active cells.)

A short description of the next series: DPPH radical scavenging. To be noted: DPPH. As for the experimental part:
Compounds were incubated with 2,2-diphenyl-1-picrylhydrazyl (DPPH, Sigma-Aldrich; […]) in ethanol for 30 min. Absorbance was measured at 520 nm using a Multiskan Spectrum Microplate Reader (Thermo Fisher Scientific)[35]. Ascorbic acid (Sigma-Aldrich; 50 µM), used as control, scavenged DPPH radicals by 82.4 ± 1.9%.
For orientation: Loss of DPPH colour is used to gauge radical scavenging.

The subject of a further series is intracellular Ca^2+. In words: Intracellular Ca2+ in fMLP-stimulated PMNL. In kind it is cell-based, human. As for the experimental part:
PMNL (1 × 10^6) were incubated with Fura-2/AM (Thermo Fisher Scientific; 2 nmol) for 45 min at 37 °C, washed, resuspended in PBS pH 7.4 plus 1 mg/ml glucose and transferred to fluorescene 96-well microplates (Greiner). After pre-incubation with compounds for 10 min, 1 mM Ca^2+ was added, and cells were stimulated with fMLP (1 µM) for another 10 min. Intracellular Ca^2+ concentrations were determined using a thermally (37 °C) controlled NOVOstar fluorescence microplate reader [BMG Labtech, Ortenberg, Germany; emission at 510 nm, excitation at 340 nm (Ca^2+-bound Fura-2) and 380 nm (free Fura-2)][17]. The maximal fluorescence signal was recorded after lysis of […] with Triton X-100, and the minimal fluorescence was assessed by adding 20 mM EDTA to chelate Ca^2+. The difference in the signal ratio obtained with Triton X-100 and Triton X-100 plus 20 mM EDTA was set to 100% for each experiment.

The nature of series [2]: Water solubility (statement). In kind it is physicochemical. To be noted: authors' statement in reply to reviewer.

For the compound `C/C(=C\CC/C(C)=C/CC[C@]1(C)CCc2cc(O)cc(C)c2O1)CC/C=C(\C)C(=O)O` [4h, garcinoic acid], the “12-LO product formation/PMNL, residual activity” value at 12-LO is listed as 75.1 ± 12.1 % of control. In the series with 15-LO, the “15-LO product formation/PMNL, residual activity” value is on record as 128.6 ± 42.3 % of control. Besides, in series [1], the “Cell viability/peripheral blood mononuclear cells, residual viability” value is “n.i”. Further, the “radical scavenging as measure for antioxidant activity” value in the series “DPPH radical scavenging” is on record as “only evident at micromolar”. In addition, the “concentration at which intracellular Ca^2+-influx was significantly reduced” value in the series on intracellular Ca^2+ is recorded as not below 1 µM. Further, in series [2], the water solubility entry is “poor”.
